Data from patent US12384797B2, “Thioeno[3,2-b] pyridin-7-amine compounds for treating familial dysautonomia” (PTC THERAPEUTICS, INC., priority 2019, dated 2025).

Each molecule was assayed on Elongator complex protein 1 (ELP1, also referred to as IKBKAP) (assay: IKBKAP-HTRF assay (IKBKAP protein in lysates of FD patient-derived fibroblasts)). Details: 48 hours incubation, 7-point concentration curve.
Format: cell-based, human
How it was run: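 Sandwich HTRF with two labelled anti-IKAP antibodies (overnight, 4 °C) measured IKBKAP in lysates of FD patient fibroblasts. Cells were exposed to compound for 48 h at 37 °C (7-point curve, 3.16-fold steps, triplicates). EC2x is the dose doubling IKBKAP versus DMSO control; MFI is sample ΔF divided by vehicle ΔF.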

Row | SMILES | EC2x for IKBKAP protein expression (concentration producing two times the amount of IKBKAP protein vs DMSO vehicle control) | MFI (maximum fold increase in IKBKAP protein abundance relative to the vehicle control)
1 | Cc1c(C[C@H](C)N)sc2c(NCc3ccccc3F)cc(Cl)nc12 [Compound 29, 2-[(2S)-2-aminopropyl]-5-chloro-N-[(2-fluorophenyl)methyl]-3-methylthieno[3,2-b]pyridin-7-amine] | ***** (≤0.005 μM is indicated by five stars (*****)) | ***** (>4.9 is indicated by five stars (*****))
2 | C[C@H](N)Cc1sc2c(NCc3ccco3)cc(Cl)nc2c1Br [Compound 37, 2-[(2S)-2-aminopropyl]-3-bromo-5-chloro-N-[(furan-2-yl)methyl]thieno[3,2-b]pyridin-7-amine] | ***** (≤0.005 μM is indicated by five stars (*****)) | ***** (>4.9 is indicated by five stars (*****))
3 | C[S+]([O-])C[C@H](N)Cc1sc2c(NCc3ccco3)cc(Cl)nc2c1Cl (stereo partly drawn) [Compound 167, [(2R)-2-amino-3-(3,5-dichloro-7-{[(furan-2-yl)methyl]amino}thieno[3,2-b]pyridin-2-yl)propyl](methyl)sulfaniumolate] | ***** (≤0.005 μM is indicated by five stars (*****)) | ***** (>4.9 is indicated by five stars (*****))
4 | C=C[C@H](N)Cc1cc2nc(Cl)cc(NCc3ccco3)c2s1 [Compound 119, 2-[(2R)-2-aminobut-3-en-1-yl]-5-chloro-N-[(furan-2-yl)methyl]thieno[3,2-b]pyridin-7-amine] | **** (between >0.005 μM and ≤0.02 μM is indicated by four stars (****)) | **** (between >3.9 and ≤4.9 is indicated by four stars (****))
5 | COc1cccc(NC(=O)[C@H](N)Cc2sc3c(NCc4ccco4)cc(Cl)nc3c2C)c1 [Compound 144, 3-(5-chloro-7-{[(furan-2-yl)methyl]amino}-3-methylthieno[3,2-b]pyridin-2-yl)-N-(3-methoxyphenyl)-D-alaninamide] | **** (between >0.005 μM and ≤0.02 μM is indicated by four stars (****)) | ***** (>4.9 is indicated by five stars (*****))
6 | Cc1c(C[C@@H](N)C(=O)N(C)C)sc2c(NCc3ccco3)cc(Cl)nc12 [Compound 116, 3-(5-chloro-7-{[(furan-2-yl)methyl]amino}-3-methylthieno[3,2-b]pyridin-2-yl)-N,N-dimethyl-D-alaninamide] | **** (between >0.005 μM and ≤0.02 μM is indicated by four stars (****)) | ***** (>4.9 is indicated by five stars (*****))
7 | COc1c(C[C@H](C)N)sc2c(NCc3ccco3)cc(Cl)nc12 [Compound 136, 2-[(2S)-2-aminopropyl]-5-chloro-N-[(furan-2-yl)methyl]-3-methoxythieno[3,2-b]pyridin-7-amine] | ***** (≤0.005 μM is indicated by five stars (*****)) | ***** (>4.9 is indicated by five stars (*****))
8 | N[C@@H](CCF)Cc1sc2c(NCc3cccs3)cc(Cl)nc2c1Cl [Compound 98, 2-[(2S)-2-amino-4-fluorobutyl]-3,5-dichloro-N-[(thiophen-2-yl)methyl]thieno[3,2-b]pyridin-7-amine] | ***** (≤0.005 μM is indicated by five stars (*****)) | ***** (>4.9 is indicated by five stars (*****))
9 | CC[C@H](N)Cc1sc2c(NCc3ccco3)cc(Cl)nc2c1C [Compound 19, 2-[(2S)-2-aminobutyl]-5-chloro-N-[(furan-2-yl)methyl]-3-methylthieno[3,2-b]pyridin-7-amine] | ***** (≤0.005 μM is indicated by five stars (*****)) | ***** (>4.9 is indicated by five stars (*****))
10 | Cc1c(C[C@H](N)CF)sc2c(NCc3ccco3)cc(Cl)nc12 [Compound 59, 2-[(2S)-2-amino-3-fluoropropyl]-5-chloro-N-[(furan-2-yl)methyl]-3-methylthieno[3,2-b]pyridin-7-amine] | *** (between >0.02 μM and ≤0.5 μM is indicated by three stars (***)) | ** (between >1.9 and ≤2.9 is indicated by two stars (**))
11 | C[C@@H](N)c1cc2nc(Cl)cc(NCc3ccco3)c2s1 [Compound 23, 2-[(1R)-1-aminoethyl]-5-chloro-N-[(furan-2-yl)methyl]thieno[3,2-b]pyridin-7-amine] | * (An EC2x>1 μM is indicated by one star (*)) | ** (between >1.9 and ≤2.9 is indicated by two stars (**))
12 | Cc1c(C(C)(O)CO)sc2c(NCc3ccco3)cc(Cl)nc12 (stereo not drawn) [Compound 147, 2-(5-chloro-7-{[(furan-2-yl)methyl]amino}-3-methylthieno[3,2-b]pyridin-2-yl)propane-1,2-diol] | *** (between >0.02 μM and ≤0.5 μM is indicated by three stars (***)) | ** (between >1.9 and ≤2.9 is indicated by two stars (**))
13 | Cc1c(C[C@@H](N)C(=O)N(C)c2ccccc2)sc2c(NCc3ccco3)cc(Cl)nc12 [Compound 141, 3-(5-chloro-7-{[(furan-2-yl)methyl]amino}-3-methylthieno[3,2-b]pyridin-2-yl)-N-methyl-N-phenyl-D-alaninamide] | *** (between >0.02 μM and ≤0.5 μM is indicated by three stars (***)) | **** (between >3.9 and ≤4.9 is indicated by four stars (****))
14 | N[C@@H](CCF)Cc1sc2c(NCc3nccs3)cc(Cl)nc2c1Cl [Compound 47, 2-[(2S)-2-amino-4-fluorobutyl]-3,5-dichloro-N-[(1,3-thiazol-2-yl)methyl]thieno[3,2-b]pyridin-7-amine] | ***** (≤0.005 μM is indicated by five stars (*****)) | ***** (>4.9 is indicated by five stars (*****))
15 | OC[C@@H](Cc1sc2c(NCc3nccs3)cc(Cl)nc2c1Br)NC(F)(F)F [Compound 65, (2R)-3-(3-bromo-5-chloro-7-{[(1,3-thiazol-2-yl)methyl]amino}thieno[3,2-b]pyridin-2-yl)-2-[(trifluoromethyl)amino]propan-1-ol] | *** (between >0.02 μM and ≤0.5 μM is indicated by three stars (***)) | ***** (>4.9 is indicated by five stars (*****))
16 | N[C@H](Cc1sc2c(NCc3ccco3)cc(Cl)nc2c1Cl)C(=O)Nc1ccccc1F [Compound 120, 3-(3,5-dichloro-7-{[(furan-2-yl)methyl]amino}thieno[3,2-b]pyridin-2-yl)-N-(2-fluorophenyl)-D-alaninamide] | **** (between >0.005 μM and ≤0.02 μM is indicated by four stars (****)) | **** (between >3.9 and ≤4.9 is indicated by four stars (****))
17 | CC(C)C[C@H](N)Cc1sc2c(NCc3nccs3)cc(Cl)nc2c1Br [Compound 62, 2-[(2S)-2-amino-4-methylpentyl]-3-bromo-5-chloro-N-[(1,3-thiazol-2-yl)methyl]thieno[3,2-b]pyridin-7-amine] | ***** (≤0.005 μM is indicated by five stars (*****)) | ***** (>4.9 is indicated by five stars (*****))
18 | CNCc1cc2nc(Cl)cc(NCc3ccco3)c2s1 [Compound 25, 5-chloro-N-[(furan-2-yl)methyl]-2-[(methylamino)methyl]thieno[3,2-b]pyridin-7-amine] | *** (between >0.02 μM and ≤0.5 μM is indicated by three stars (***)) | *** (between >2.9 and ≤3.9 is indicated by three stars (***))
19 | Cc1c([C@@H](N)C(C)C)sc2c(NCc3ccco3)cc(Cl)nc12 [Compound 30, 2-[(1S)-1-amino-2-methylpropyl]-5-chloro-N-[(furan-2-yl)methyl]-3-methylthieno[3,2-b]pyridin-7-amine] | * (An EC2x>1 μM is indicated by one star (*)) | * (An MFI≤1.9 is indicated by one star (*))
20 | N[C@@H](CO)Cc1sc2c(NCc3ccco3)cc(Cl)nc2c1Br [Compound 41, (2R)-2-amino-3-(3-bromo-5-chloro-7-{[(furan-2-yl)methyl]amino}thieno[3,2-b]pyridin-2-yl)propan-1-ol] | ***** (≤0.005 μM is indicated by five stars (*****)) | ***** (>4.9 is indicated by five stars (*****))
21 | CS(=O)(=O)C[C@H](N)Cc1sc2c(NCc3ccco3)cc(Cl)nc2c1Br [Compound 117, 2-[(2R)-2-amino-3-(methanesulfonyl)propyl]-3-bromo-5-chloro-N-[(furan-2-yl)methyl]thieno[3,2-b]pyridin-7-amine] | **** (between >0.005 μM and ≤0.02 μM is indicated by four stars (****)) | ***** (>4.9 is indicated by five stars (*****))
